EP1206258B1, “COMPOSITIONS CONTAINING ESTERS FOR TREATING PARASITIC INFESTATIONS OF ORGANISMS” (priority 1999, dated 2001)

What was measured:
[1] = system: Mouse; conditions: Oral, VPITAR 33(5)48,74; cited from earlier work
[2] = system: Rat; conditions: Oral, Russell 1973; cited from earlier work
[3] = system: Rabbit; conditions: Dermal, FRMM; cited from earlier work
[4] = system: Acarus siro; experiment: residual filter paper bioassay on Acarus siro (Table 2a)
Method: The effect of trans-cinnamic acid ethyl ester on the mite Acarus siro was investigated using a residual filter paper bioassay. Seven samples of 0.01g of mite culture was placed on 7, 90mm Whatman™ filter papers. Each paper was previously treated with 745µl of a solution containing trans-cinnamic acid ethyl ester at concentrations varying from 74.64µl to 7.64 x 10^-4 µl/petri dish respectively and allowed to dry for 15 minutes. The controls were treated in the same way except ethanol (HPLC grade) was used as this was sample dilutant. Percentage control was calculated as in W.S. Abbot, A Method of Computing the Effectiveness of an Insecticide, Journal of Economic Entomology (1925) 18, 265-267.

[5] = system: Fusarium culmorum; experiment: growth inhibition test on SAB agar, F. culmorum; type: cell-based
Method: (§1) The antifungal activity of ethyl trans-cinnamate against a number of different fungi was investigated by means of in a simple growth inhibition test.
(§2) The following quantities of Ethyl trans-Cinnamate were added to Sabourand Dextrose agar (SAB); 50 ml L^-1, 4ml L^-1, 2ml L^-1, 1ml L^-1, 400 µl L^-1, 200 µl L^-1 and 40 µl L^-1. […] These were then autoclaved and poured into standard Petri dishes. […] Duplicate plates of each concentration, plus control plates containing only SAB Agar, where then separately inoculated with, four different species of fungi, these were Aspergillus nidulans, Penicillium digitatum, Rhizopus arrhizus and Fusarium culmorum. Inoculation was carried out using a single stab at the centre of each Petri dish. The plates were then incubated at 30°C for 6 days and daily measurements of mycobial growth where taken every 24 hours.

[6] = system: Guinea Pig; conditions: Oral, VPITAR 33(5)48,74; cited from earlier work
[7] = system: Penicillium digitatum; experiment: growth inhibition test on SAB agar, P. digitatum; type: cell-based; parameters: key to Growth of P. digitatum: - = No Growth; + = Growth; ++ = Extensive Growth
Method: as §1, §2

[8] = 50ml L-^1 and higher doses, further experiments, data not shown

Which LDSO [1] does the source give for CCOC(=O)/C=C/c1ccccc1 [trans-cinnamic acid ethyl ester] here?
The LDSO was 4000 mg/kg.

And the LDSO [2]?
Its LDSO is 7800 mg/kg.

And the LDSO [3]?
The LDSO was >5000 mg·kg.

And the percentage control figure ([4]; 7.64µl/petri dish)?
The percentage control figure was 100%.

What about the “Mean Percentage Mortality Over Control” value ([4]; Concentration (µl) 3.20) of the same molecule?
Its value is 95.57.

What about the “Mean Percentage Mortality Over Control” value ([4]; Concentration (µl) 3.20 x 10^1) of the same molecule?
The value was 100.00.

And the “Mean Percentage Mortality Over Control” value ([4]; Concentration (µl) 3.20 x 10^-1)?
The value was 97.74.

And the “Mean Percentage Mortality Over Control” value ([4]; Concentration (µl) 3.20 x 10^-2)?
The value was 69.51.

And the “Mean Percentage Mortality Over Control” value ([4]; Concentration (µl) 3.20 x 10^-3)?
The value was 32.95.

And the “Mean Percentage Mortality Over Control” value ([4]; Concentration (µl) 3.20 x 10^-4)?
The value was 6.33.

And the “Level of Radial Growth (mm) of F. culmorum” value (shortened to “Level of Radial Growth”) ([5]; 1ml L^-1, Day 1)?
The value was 0 mm.

And the “Level of Radial Growth” value ([5]; 1ml L^-1, Day 2)?
The value was 0 mm.

And the “Level of Radial Growth” value ([5]; 1ml L^-1, Day 3)?
Its value is 0 mm.

What about the “Level of Radial Growth” value ([5]; 1ml L^-1, Day 4) of the same molecule?
Its value is 0 mm.

What about the “Level of Radial Growth” value ([5]; 1ml L^-1, Day 5) of the same molecule?
Its value is 0 mm.

What about the “Level of Radial Growth” value ([5]; 1ml L^-1, Day 6) of the same molecule?
The value was 0 mm.

And the “Level of Radial Growth” value ([5]; 2ml L^-1, Day 1)?
Its value is 0 mm.

What about the “Level of Radial Growth” value ([5]; 2ml L^-1, Day 2) of the same molecule?
The value was 0 mm.

What about the “Level of Radial Growth” value ([5]; 2ml L^-1, Day 3) of the same molecule?
The value was 0 mm.

And the “Level of Radial Growth” value ([5]; 2ml L^-1, Day 4)?
Its value is 0 mm.

What about the “Level of Radial Growth” value ([5]; 2ml L^-1, Day 5) of the same molecule?
The value was 0 mm.

And the “Level of Radial Growth” value ([5]; 2ml L^-1, Day 6)?
Its value is 0 mm.

What about the “Level of Radial Growth” value ([5]; 4ml L^-1, Day 1) of the same molecule?
Its value is 0 mm.

And the “Level of Radial Growth” value ([5]; 4ml L^-1, Day 2)?
The value was 0 mm.

And the “Level of Radial Growth” value ([5]; 4ml L^-1, Day 3)?
The value was 0 mm.

And the “Level of Radial Growth” value ([5]; 4ml L^-1, Day 4)?
Its value is 0 mm.

What about the “Level of Radial Growth” value ([5]; 4ml L^-1, Day 5) of the same molecule?
Its value is 0 mm.

What about the “Level of Radial Growth” value ([5]; 4ml L^-1, Day 6) of the same molecule?
Its value is 0 mm.

And the “Level of Radial Growth” value ([5]; 40µl L^-1, Day 1)?
Its value is 0 mm.

What about the “Level of Radial Growth” value ([5]; 40µl L^-1, Day 2) of the same molecule?
Its value is 0 mm.

And the “Level of Radial Growth” value ([5]; 40µl L^-1, Day 3)?
Its value is 1 mm.

What about the “Level of Radial Growth” value ([5]; 40µl L^-1, Day 4) of the same molecule?
The value was 1 mm.

What about the “Level of Radial Growth” value ([5]; 40µl L^-1, Day 5) of the same molecule?
The value was 2 mm.

And the “Level of Radial Growth” value ([5]; 40µl L^-1, Day 6)?
The value was 6 mm.

What about the “duration of complete inhibition of growth” value [5, 8] of the same molecule?
Its value is “at least 8 days”.

And the inhibition of growth ([5]; 50ml L-^1 level)?
Its inhibition of growth is “complete inhibition of growth”.

What about the “Level of Radial Growth” value ([5]; 50 ml L^-1, Day 1) of the same molecule?
Its value is 0 mm.

And the “Level of Radial Growth” value ([5]; 50 ml L^-1, Day 2)?
Its value is 0 mm.

What about the “Level of Radial Growth” value ([5]; 50 ml L^-1, Day 3) of the same molecule?
Its value is 0 mm.

What about the “Level of Radial Growth” value ([5]; 50 ml L^-1, Day 4) of the same molecule?
Its value is 0 mm.

And the “Level of Radial Growth” value ([5]; 50 ml L^-1, Day 5)?
The value was 0 mm.

And the “Level of Radial Growth” value ([5]; 50 ml L^-1, Day 6)?
The value was 0 mm.

And the “Level of Radial Growth” value ([5]; 200µl L^-1, Day 1)?
The value was 0 mm.

What about the “Level of Radial Growth” value ([5]; 200µl L^-1, Day 2) of the same molecule?
Its value is 0 mm.

What about the “Level of Radial Growth” value ([5]; 200µl L^-1, Day 3) of the same molecule?
Its value is 0 mm.

And the “Level of Radial Growth” value ([5]; 200µl L^-1, Day 4)?
The value was 1 mm.

And the “Level of Radial Growth” value ([5]; 200µl L^-1, Day 5)?
Its value is 2 mm.

And the “Level of Radial Growth” value ([5]; 200µl L^-1, Day 6)?
The value was 6 mm.

And the “Level of Radial Growth” value ([5]; 400µl L^-1, Day 1)?
Its value is 0 mm.

And the “Level of Radial Growth” value ([5]; 400µl L^-1, Day 2)?
Its value is 0 mm.

And the “Level of Radial Growth” value ([5]; 400µl L^-1, Day 3)?
The value was 0 mm.

And the “Level of Radial Growth” value ([5]; 400µl L^-1, Day 4)?
Its value is 1 mm.

What about the “Level of Radial Growth” value ([5]; 400µl L^-1, Day 5) of the same molecule?
The value was 2 mm.

What about the “Level of Radial Growth” value ([5]; 400µl L^-1, Day 6) of the same molecule?
The value was 6 mm.

What about the LDSO [6] of the same molecule?
The LDSO was 4000 mg/kg.

What about the “Growth of P. digitatum” value ([7]; 1ml L^-1, Day 1) of the same molecule?
The value was “-”.

What about the “Growth of P. digitatum” value ([7]; 1ml L^-1, Day 2) of the same molecule?
The value was “-”.

And the “Growth of P. digitatum” value ([7]; 1ml L^-1, Day 3)?
Its value is “-”.

And the “Growth of P. digitatum” value ([7]; 1ml L^-1, Day 4)?
The value was “+”.

And the “Growth of P. digitatum” value ([7]; 1ml L^-1, Day 5)?
Its value is “+”.

And the “Growth of P. digitatum” value ([7]; 1ml L^-1, Day 6)?
The value was “+”.

What about the “Growth of P. digitatum” value ([7]; 2ml L^-1, Day 1) of the same molecule?
Its value is “-”.

And the “Growth of P. digitatum” value ([7]; 2ml L^-1, Day 2)?
The value was “-”.

What about the “Growth of P. digitatum” value ([7]; 2ml L^-1, Day 3) of the same molecule?
Its value is “-”.

What about the “Growth of P. digitatum” value ([7]; 2ml L^-1, Day 4) of the same molecule?
Its value is “-”.

What about the “Growth of P. digitatum” value ([7]; 2ml L^-1, Day 5) of the same molecule?
The value was “-”.

And the “Growth of P. digitatum” value ([7]; 2ml L^-1, Day 6)?
Its value is “-”.

What about the “Growth of P. digitatum” value ([7]; 4ml L^-1, Day 1) of the same molecule?
The value was “-”.

What about the “Growth of P. digitatum” value ([7]; 4ml L^-1, Day 2) of the same molecule?
Its value is “-”.

What about the “Growth of P. digitatum” value ([7]; 4ml L^-1, Day 3) of the same molecule?
Its value is “-”.

And the “Growth of P. digitatum” value ([7]; 4ml L^-1, Day 4)?
The value was “-”.

And the “Growth of P. digitatum” value ([7]; 4ml L^-1, Day 5)?
Its value is “-”.

And the “Growth of P. digitatum” value ([7]; 4ml L^-1, Day 6)?
The value was “-”.

What about the “Growth of P. digitatum” value ([7]; 40µl L^-1, Day 1) of the same molecule?
The value was “-”.

And the “Growth of P. digitatum” value ([7]; 40µl L^-1, Day 2)?
The value was “++”.

And the “Growth of P. digitatum” value ([7]; 40µl L^-1, Day 3)?
The value was “++”.

And the “Growth of P. digitatum” value ([7]; 40µl L^-1, Day 4)?
Its value is “++”.

And the “Growth of P. digitatum” value ([7]; 40µl L^-1, Day 5)?
The value was “++”.

And the “Growth of P. digitatum” value ([7]; 40µl L^-1, Day 6)?
The value was “++”.

What about the “duration of complete inhibition of growth” value [7, 8] of the same molecule?
Its value is “at least 8 days”.

And the inhibition of growth ([7]; 50ml L-^1 level)?
Its inhibition of growth is “complete inhibition of growth”.

What about the “Growth of P. digitatum” value ([7]; 50 ml L^-1, Day 1) of the same molecule?
Its value is “-”.

And the “Growth of P. digitatum” value ([7]; 50 ml L^-1, Day 2)?
The value was “-”.

What about the “Growth of P. digitatum” value ([7]; 50 ml L^-1, Day 3) of the same molecule?
The value was “-”.

And the “Growth of P. digitatum” value ([7]; 50 ml L^-1, Day 4)?
Its value is “-”.

What about the “Growth of P. digitatum” value ([7]; 50 ml L^-1, Day 5) of the same molecule?
Its value is “-”.

And the “Growth of P. digitatum” value ([7]; 50 ml L^-1, Day 6)?
The value was “-”.

What about the “Growth of P. digitatum” value ([7]; 200µl L^-1, Day 1) of the same molecule?
The value was “-”.

What about the “Growth of P. digitatum” value ([7]; 200µl L^-1, Day 2) of the same molecule?
The value was “++”.

And the “Growth of P. digitatum” value ([7]; 200µl L^-1, Day 3)?
The value was “++”.

And the “Growth of P. digitatum” value ([7]; 200µl L^-1, Day 4)?
The value was “++”.

And the “Growth of P. digitatum” value ([7]; 200µl L^-1, Day 5)?
The value was “++”.

What about the “Growth of P. digitatum” value ([7]; 200µl L^-1, Day 6) of the same molecule?
The value was “++”.

And the “Growth of P. digitatum” value ([7]; 400µl L^-1, Day 1)?
Its value is “-”.

And the “Growth of P. digitatum” value ([7]; 400µl L^-1, Day 2)?
Its value is “+”.

And the “Growth of P. digitatum” value ([7]; 400µl L^-1, Day 3)?
The value was “++”.

What about the “Growth of P. digitatum” value ([7]; 400µl L^-1, Day 4) of the same molecule?
Its value is “++”.

What about the “Growth of P. digitatum” value ([7]; 400µl L^-1, Day 5) of the same molecule?
The value was “++”.

What about the “Growth of P. digitatum” value ([7]; 400µl L^-1, Day 6) of the same molecule?
The value was “++”.
